In ChEMBL document CHEMBL1131406, “Tripeptide growth hormone secretagogues” (Bioorg Med Chem Lett, 1998) one finds EC50 data, which are given here for 24 compounds.

Structures are written as SMILES.

The species entered for the first test is Rattus norvegicus. In words: Compound was tested in vitro for growth hormone release from rat pituitary cells; Inactive. It counts as functional, cell-based. Particulars: pituitary gland cell; call rule not given here.
On to `CC(C)(N)C(=O)N[C@H](Cc1c[nH]c2ccccc12)C(=O)NCCc1ccccc1`, for which the 50% effective concentration (EC50) result is on record as “Not Active”.
As for `CCOC(=O)[C@@H](CCc1ccccc1)NC(=O)[C@H](Cc1c[nH]c2ccccc12)NC(=O)C(C)(C)N`, the EC50 entry was “Not Active”.
In the case of `CC(C)(N)C(=O)N[C@H](Cc1c[nH]c2ccccc12)C(=O)NCc1cccc2ccccc12`, the 50% effective concentration (EC50) entry was “Not Active”.
Turning to `CCOC(=O)[C@@H](CCc1ccccc1)NC(=O)[C@@H](Cc1ccc2ccccc2c1)NC(=O)C(C)(C)N`, the concentration for a half-maximal effect (EC50) result is reported as “Not Active”.

The species named for a further test is Rattus norvegicus. Description: Tested in vitro for growth hormone release from rat pituitary cells. It counts as functional, cell-based, Pituitary gland cell. Particulars: Rattus norvegicus, Pituitary gland cell.
Regarding `CCOC(=O)[C@H](Cc1cccc2ccccc12)NC(=O)[C@@H](Cc1c[nH]c2ccccc12)NC(=O)C(C)(C)N`, a half-maximal response (EC50) required 0.04 µM.
Same read-out and setting: to `CC(C)(N)C(=O)N[C@H](Cc1c[nH]c2ccccc12)C(=O)NCCCCc1ccccc1` belongs 0.7 µM; to `CCNC(=O)[C@@H](CCc1ccccc1)NC(=O)[C@@H](Cc1c[nH]c2ccccc12)NC(=O)C(C)(C)N`, 0.246 µM.
In turn, `CC(C)(N)C(=O)N[C@H](Cc1c[nH]c2ccccc12)C(=O)NCc1ccc2ccccc2c1` had a 50% effective concentration (EC50) of 0.085 µM.
On the same count and under the same terms, then `CC(C)(N)C(=O)N[C@H](Cc1c[nH]c2ccccc12)C(=O)N[C@H](CCc1ccccc1)C(=O)O`, with over 0.5 µM; and `CCOC(=O)[C@H](Cc1ccccc1)N(C)C(=O)[C@@H](Cc1c[nH]c2ccccc12)NC(=O)C(C)(C)N`, with 0.04 µM.
As for `CCOC(=O)[C@H](CCCc1ccccc1)NC(=O)[C@@H](Cc1c[nH]c2ccccc12)NC(=O)C(C)(C)N`, the midpoint of the response, the EC50, lay at 0.82 µM.
Consider `CCOC(=O)[C@H](CCc1ccccc1)N(C)C(=O)[C@@H](Cc1c[nH]c2ccccc12)NC(=O)C(C)(C)N`, for which the EC50 was 0.27 µM.
The same measure, in the same setting: to `CC(C)(N)C(=O)N[C@H](Cc1c[nH]c2ccccc12)C(=O)NCCc1cccc2ccccc12` belongs 0.86 µM; to `CCOC(=O)[C@@H](Cc1ccccc1)NC(=O)[C@@H](Cc1c[nH]c2ccccc12)NC(=O)C(C)(C)N`, 0.35 µM.
Compound `CCOC(=O)[C@@H](CCc1ccccc1)NC(=O)[C@@H](Cc1cccc2ccccc12)NC(=O)C(C)(C)N` had a concentration for a half-maximal effect (EC50) of over 0.05 µM.
The same measure, in the same setting: then `COC(=O)[C@@H](CCc1ccccc1)NC(=O)[C@@H](Cc1c[nH]c2ccccc12)NC(=O)C(C)(C)N`, with 0.018 µM; and `CCOC(=O)[C@H](Cc1ccc2ccccc2c1)NC(=O)[C@@H](Cc1c[nH]c2ccccc12)NC(=O)C(C)(C)N`, with 2 µM; and `CCOC(=O)[C@@H](CCCc1ccccc1)NC(=O)[C@@H](Cc1c[nH]c2ccccc12)NC(=O)C(C)(C)N`, with 1.14 µM.
`CC(C)OC(=O)[C@@H](CCc1ccccc1)NC(=O)[C@@H](Cc1c[nH]c2ccccc12)NC(=O)C(C)(C)N` came in with an EC50 of 0.004 µM.
On to `CC(C)(N)C(=O)N[C@H](Cc1c[nH]c2ccccc12)C(=O)NCCCc1ccccc1`, for which the EC50 worked out at 0.39 µM.
In turn, `CC(C)(N)C(=O)N[C@H](Cc1c[nH]c2ccccc12)C(=O)N[C@H](CCc1ccccc1)C(=O)OCc1ccccc1` showed an EC50 of 0.5 µM.
`CCOC(=O)[C@H](CCc1ccccc1)NC(=O)[C@@H](Cc1c[nH]c2ccccc12)NC(=O)C(C)(C)N` gave an EC50 of 0.003 µM.
Take `CCOC(=O)[C@H](Cc1ccccc1)NC(=O)[C@@H](Cc1c[nH]c2ccccc12)NC(=O)C(C)(C)N`: it took 0.24 µM to reach a half-maximal effect (EC50).

The same test, now with this note: pituitary gland cell.
Regarding `CCOC(=O)[C@@H](CCc1ccccc1)NC(=O)[C@@H](Cc1c[nH]c2ccccc12)NC(=O)C(C)(C)N`, the response was half-maximal at 0.05 µM (EC50).
